Laboratory results: ChEMBL document CHEMBL1201862, “PubChem BioAssay data set” (2004)
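Step 1: Grow cells in 96-well plates. Step 2: Expose to compound for 48 hours at 5 concentrations. Step 3: Interpolate endpoints linearly; if unreached, use highest concentration. GI50 marks 50% less growth.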 Activity calls are given as the source filed them. Rule as the data show it: active = GI50 up to about 1.1 µM and inactive = higher.

What was measured:
Test in all cases: NCI-60 cell line screen, 48 h
UACC-62 = system: UACC-62
SN12C = system: SN12C
OVCAR-3 = system: OVCAR-3
COLO 205 = system: COLO 205
BT-549 = system: BT-549
DU-145 = system: DU-145
SR = system: SR
ACHN = system: ACHN
TK-10 = system: TK-10
NCI-H522 = system: NCI-H522
NCI-H460 = system: NCI-H460
MCF7 = system: MCF7
SK-OV-3 = system: SK-OV-3
OVCAR-4 = system: OVCAR-4
NCI/ADR-RES = system: NCI/ADR-RES
SNB-19 = system: SNB-19
UO-31 = system: UO-31
OVCAR-8 = system: OVCAR-8
RXF 393 = system: RXF 393
MDA-N = system: MDA-N
NCI-H23 = system: NCI-H23
IGROV-1 = system: IGROV-1
RPMI-8226 = system: RPMI-8226
HCT-116 = system: HCT-116
SK-MEL-5 = system: SK-MEL-5
786-0 = system: 786-0
SF-295 = system: SF-295
OVCAR-5 = system: OVCAR-5
SF-268 = system: SF-268
SF-539 = system: SF-539
HCT-15 = system: HCT-15
K562 = system: K562
HL-60 = system: HL-60
HT-29 = system: HT-29
Malme-3M = system: Malme-3M
T47D = system: T47D
SK-MEL-2 = system: SK-MEL-2
M14 = system: M14
NCI-H226 = system: NCI-H226
HOP-92 = system: HOP-92
MOLT-4 = system: MOLT-4
CCRF-CEM = system: CCRF-CEM
CAKI-1 = system: CAKI-1
U-251 = system: U-251
MDA-MB-231 = system: MDA-MB-231
SW-620 = system: SW-620
KM12 = system: KM12
MDA-MB-435 = system: MDA-MB-435
A549 = system: A549
PC-3 = system: PC-3
LOX IMVI = system: LOX IMVI
HOP-62 = system: HOP-62
EKVX = system: EKVX
SK-MEL-28 = system: SK-MEL-28
SNB-75 = system: SNB-75
Hs-578T = system: Hs-578T
UACC-257 = system: UACC-257
HCC 2998 = system: HCC 2998
A498 = system: A498

Measured: GI50

COc1ccc(C2C3CCc4ccccc4C3=NN2S(=O)(=O)c2ccc(/C=C/C(=O)O)cc2)cc1 (stereo unspecified)
0.188 µM: HCT-15
inactive: UACC-62 2.82 µM | SN12C 6.25 µM | OVCAR-3 3.99 µM | COLO 205 2 µM | BT-549 10.4 µM | DU-145 22.1 µM | ACHN 3.21 µM | TK-10 6.79 µM | NCI-H522 2.31 µM | NCI-H460 3.52 µM | MCF7 2.1 µM | SK-OV-3 1.55 µM | OVCAR-4 7.23 µM | NCI/ADR-RES 1.75 µM | SNB-19 7.29 µM | UO-31 5.74 µM | OVCAR-8 11 µM | RXF 393 3.15 µM | MDA-N 1.42 µM | RPMI-8226 3.07 µM | HCT-116 3.53 µM | SK-MEL-5 4.01 µM | 786-0 1.82 µM | SF-295 2.93 µM | OVCAR-5 9.91 µM | SF-268 5.35 µM | SF-539 2.3 µM | K562 2.84 µM | HL-60 3.07 µM | HT-29 3.33 µM | Malme-3M 2.77 µM | T47D 7.06 µM | SK-MEL-2 2.71 µM | M14 4.75 µM | NCI-H226 5.98 µM | HOP-92 11.6 µM | MOLT-4 3.61 µM | CCRF-CEM 3.46 µM | CAKI-1 8.93 µM | U-251 3.21 µM | MDA-MB-231 4.84 µM | SW-620 3.18 µM | KM12 1.82 µM | A549 5.11 µM | PC-3 3.98 µM | LOX IMVI 4.73 µM | HOP-62 5.61 µM | EKVX 8.99 µM
active: SR 0.869 µM | NCI-H23 < 0.01 µM | IGROV-1 0.755 µM | MDA-MB-435 1.07 µM

Cc1ccsc1/C=N/Nc1cc(C)c2cccc(C)c2n1
inactive: UACC-62 > 100 µM | SN12C > 100 µM | SK-MEL-28 > 100 µM | OVCAR-3 > 100 µM | COLO 205 > 100 µM | BT-549 > 100 µM | DU-145 > 100 µM | ACHN > 100 µM | SNB-75 > 100 µM | TK-10 > 100 µM | MCF7 2.75 µM | SK-OV-3 84.5 µM | OVCAR-4 > 100 µM | NCI/ADR-RES > 100 µM | SNB-19 > 100 µM | OVCAR-8 > 100 µM | MDA-N > 100 µM | NCI-H23 > 100 µM | IGROV-1 1.6 µM | 786-0 24.4 µM | SF-295 9.33 µM | OVCAR-5 > 100 µM | SF-268 > 100 µM | HL-60 3.78 µM | HT-29 4.14 µM | T47D > 100 µM | SK-MEL-2 > 100 µM | M14 > 100 µM | NCI-H226 > 100 µM | HOP-92 > 100 µM | CAKI-1 > 100 µM | U-251 > 100 µM | SW-620 > 100 µM | KM12 > 100 µM | MDA-MB-435 > 100 µM | A549 > 100 µM | PC-3 4.89 µM | Hs-578T > 100 µM | UACC-257 > 100 µM | HOP-62 > 100 µM | HCC 2998 > 100 µM | EKVX > 100 µM | A498 > 100 µM
